The values that follow come from US20250163104A1, “MACROCYCLIC IMMUNOMODULATORS” (priority 2021, published 2025).

A word on the IC50: it is the point on the concentration scale where inhibition reaches its midpoint.

The structures appear in SMILES notation. Where a SMILES comes first, the peptide text is derived from it. Bridges are numbered along the chain shown (N, C = ends). [ ]: non-standard residue; d: D form. The star is where a group is joined. ξ: configuration not given here. Phe(4-COOH) = N[C@@H](Cc1ccc(C(=O)O)cc1)C(=O)O; Bip = N[C@@H](Cc1ccc(-c2ccccc2)cc1)C(=O)O; Phe(3-Me) = Cc1cccc(C[C@H](N)C(=O)O)c1; 4Pal = N[C@@H](Cc1ccncc1)C(=O)O; Cha = N[C@@H](CC1CCCCC1)C(=O)O; Cit = NC(=O)NCCC[C@H](N)C(=O)O; Ile(3ξ) = CCC(C)[C@H](N)C(=O)O; Tle = CC(C)(C)[C@H](N)C(=O)O; Carboxymethyl = O=C(O)C*; Orn = NCCC[C@H](N)C(=O)O; Pra = C#CC[C@H](N)C(=O)O; Dab = NCC[C@H](N)C(=O)O; Dap = NC[C@H](N)C(=O)O

The test deals with T1, human PD-1 / PD-L1-Ig binding on Jurkat cell line over-expressing human PD-1 (Jurkat-PD-1) (Homo sapiens, UniProt Q15116).
T1 construct: expressed in transfected cells; host or cells: Jurkat
T1 sequence (Q15116 25-288): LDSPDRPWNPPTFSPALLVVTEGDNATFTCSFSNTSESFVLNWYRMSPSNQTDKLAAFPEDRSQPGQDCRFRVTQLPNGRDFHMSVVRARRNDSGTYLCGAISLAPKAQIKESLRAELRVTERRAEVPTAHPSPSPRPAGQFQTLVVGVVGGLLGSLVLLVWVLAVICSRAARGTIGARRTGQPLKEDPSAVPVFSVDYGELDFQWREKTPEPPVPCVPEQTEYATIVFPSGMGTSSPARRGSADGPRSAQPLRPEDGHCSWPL
Nature of the test: Jurkat-PD-1 Cell Binding High-Content Screening Assay (CBA). In kind it is cell-based. Particulars: Jurkat-PD-1 cells, PE-labeled PD-L1-Ig 20 nM final; read-out: Jurkat HPD1_PDL1 IC50. The gist of the method: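 Jurkat-hPD-1 cells in DMEM with 10% fetal calf serum receive test compound and are held at 37° C for 2 h. PE-labeled PD-L1-Ig is added at 20 nM final and left for 1 hour. Cells are then fixed and Hoechst-stained, and binding is measured by imaging.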
In the case of `C#CC[C@H](NC(=O)[C@H](CCN)NC(=O)[C@@H]1CSCC(=O)N[C@@H](CN)C(=O)N[C@@H](Cc2ccc(OCC(=O)O)cc2)C(=O)N[C@@H](CC(=O)O)C(=O)N[C@@H](Cc2cccc(C)c2)C(=O)N[C@@H](C(C)C)C(=O)N[C@@H](Cc2ccc(-c3ccccc3)cc2)C(=O)N[C@@H](CCCNC(N)=O)C(=O)N[C@@H](CCCN)C(=O)N[C@H](CC(C)C)C(=O)N[C@@H](CCN)C(=O)N[C@@H](CC2CCCCC2)C(=O)N[C@@H](C(C)C)C(=O)N[C@@H]([C@@H](C)O)C(=O)N1)C(N)=O` [Compound 2261] ({CH2CO}-[Dap]Y(Carboxymethyl)D[Phe(3-Me)]V[Bip][Cit][Orn][dL][Dab][Cha]VTC[Dab][Pra]-NH2; thioether N-14), the IC50 was 16 nM.

On to `C#CC[C@H](NC(=O)[C@H](C)NC(=O)[C@@H]1CSCC(=O)N[C@@H](CN)C(=O)N[C@@H](Cc2ccc(OCC(=O)O)cc2)C(=O)N[C@@H](CC(=O)O)C(=O)N[C@@H](Cc2cccc(C)c2)C(=O)N[C@@H](C(C)C)C(=O)N[C@@H](Cc2ccc(-c3ccccc3)cc2)C(=O)N[C@@H](CCCNC(N)=O)C(=O)N[C@@H](CCCN)C(=O)N[C@H](CC(C)C)C(=O)N[C@@H](CCN)C(=O)N[C@@H](CC2CCCCC2)C(=O)N[C@@H](C(C)C)C(=O)N[C@@H]([C@@H](C)O)C(=O)N1)C(=O)O` [Compound 2262], for which the IC50 was 63.6 nM.

Regarding `C#CC[C@H](NC(=O)CNC(=O)[C@@H]1CSCC(=O)N[C@@H](CN)C(=O)N[C@@H](Cc2ccc(OCC(=O)O)cc2)C(=O)N[C@@H](CC(=O)O)C(=O)N[C@@H](Cc2cccc(C)c2)C(=O)N[C@@H](C(C)C)C(=O)N[C@@H](Cc2ccc(-c3ccccc3)cc2)C(=O)N[C@@H](CCCNC(N)=O)C(=O)N[C@@H](CCCN)C(=O)N[C@H](CC(C)C)C(=O)N[C@@H](CCN)C(=O)N[C@@H](CC2CCCCC2)C(=O)N[C@@H](C(C)C)C(=O)N[C@@H]([C@@H](C)O)C(=O)N1)C(=O)O` [Compound 2263] ({CH2CO}-[Dap]Y(Carboxymethyl)D[Phe(3-Me)]V[Bip][Cit][Orn][dL][Dab][Cha]VTCG[Pra]-OH; thioether N-14), the IC50 is 12.1 nM.

On to `Cc1cccc(C[C@@H]2NC(=O)[C@H](CC(=O)O)NC(=O)[C@H](Cc3ccc(OCC(=O)O)cc3)NC(=O)[C@H](CN)NC(=O)CSC[C@@H](C(N)=O)NC(=O)[C@H](CCCN)NC(=O)[C@H](C(C)C)NC(=O)[C@H](CC3CCCCC3)NC(=O)[C@H](CCN)NC(=O)[C@@H](CC(C)C)NC(=O)[C@H](CCCN)NC(=O)[C@H](Cc3ccc(O)cc3)NC(=O)[C@H](Cc3ccc(-c4ccccc4)cc3)NC(=O)[C@H](C(C)C)NC2=O)c1` [Compound 2264] ({CH2CO}-[Dap]Y(Carboxymethyl)D[Phe(3-Me)]V[Bip]Y[Orn][dL][Dab][Cha]V[Orn]C-NH2; thioether N-14), for which the IC50 amounted to 11.9 nM.

Take `Cc1cccc(C[C@@H]2NC(=O)[C@H](CC(=O)O)NC(=O)[C@H](Cc3ccc(C(=O)O)cc3)NC(=O)[C@H](Cc3ccncc3)NC(=O)CSC[C@@H](C(N)=O)NC(=O)[C@H](CCCN)NC(=O)[C@H](C(C)C)NC(=O)[C@H](CC3CCCCC3)NC(=O)[C@H](CCN)NC(=O)[C@@H](CC(C)C)NC(=O)[C@H](CCCN)NC(=O)[C@H](CCCNC(N)=O)NC(=O)[C@H](Cc3ccc(-c4ccccc4)cc3)NC(=O)[C@H](C(C)C)NC2=O)c1` [Compound 2265] ({CH2CO}-[4Pal][Phe(4-COOH)]D[Phe(3-Me)]V[Bip][Cit][Orn][dL][Dab][Cha]V[Orn]C-NH2; thioether N-14): the half-inhibitory concentration (IC50) is 12.8 nM.

Consider `Cc1cccc(C[C@@H]2NC(=O)[C@H](CC(=O)O)NC(=O)[C@H](Cc3ccc(C(=O)O)cc3)NC(=O)[C@H](Cc3ccncc3)NC(=O)CSC[C@@H](C(N)=O)NC(=O)[C@H]([C@@H](C)O)NC(=O)[C@H](C(C)(C)C)NC(=O)[C@H](CC3CCCCC3)NC(=O)[C@H](CCN)NC(=O)[C@@H](CC(C)C)NC(=O)[C@H](CCCN)NC(=O)[C@H](CCCNC(N)=O)NC(=O)[C@H](Cc3ccc(-c4ccccc4)cc3)NC(=O)[C@H](C(C)C)NC2=O)c1` [Compound 2266] ({CH2CO}-[4Pal][Phe(4-COOH)]D[Phe(3-Me)]V[Bip][Cit][Orn][dL][Dab][Cha][Tle]TC-NH2; thioether N-14), for which the IC50 came to 18.2 nM.

In the case of `Cc1cccc(C[C@@H]2NC(=O)[C@H](CC(=O)O)NC(=O)[C@H](Cc3ccc(C(=O)O)cc3)NC(=O)[C@H](Cc3ccncc3)NC(=O)CSC[C@@H](C(N)=O)NC(=O)[C@H]([C@@H](C)O)NC(=O)[C@H](C(C)C)NC(=O)[C@H](CC(C)C)NC(=O)[C@H](CCN)NC(=O)[C@@H](CC(C)C)NC(=O)[C@H](CCCN)NC(=O)[C@H](CCCNC(N)=O)NC(=O)[C@H](Cc3ccc(-c4ccccc4)cc3)NC(=O)[C@H](C(C)C)NC2=O)c1` [Compound 2267] ({CH2CO}-[4Pal][Phe(4-COOH)]D[Phe(3-Me)]V[Bip][Cit][Orn][dL][Dab]LVTC-NH2; thioether N-14), the IC50 stood at 44.8 nM.

Consider `Cc1cccc(C[C@@H]2NC(=O)[C@H](CC(=O)O)NC(=O)[C@H](Cc3ccc(C(=O)O)cc3)NC(=O)[C@H](Cc3ccncc3)NC(=O)CSC[C@@H](C(N)=O)NC(=O)[C@H](CO)NC(=O)[C@H](C(C)C)NC(=O)[C@H](CC3CCCCC3)NC(=O)[C@H](CCN)NC(=O)[C@@H](CC(C)C)NC(=O)[C@H](CCCN)NC(=O)[C@H](CCCNC(N)=O)NC(=O)[C@H](Cc3ccc(-c4ccccc4)cc3)NC(=O)[C@H](C(C)C)NC2=O)c1` [Compound 2268] ({CH2CO}-[4Pal][Phe(4-COOH)]D[Phe(3-Me)]V[Bip][Cit][Orn][dL][Dab][Cha]VSC-NH2; thioether N-14), for which the IC50 worked out at 26.8 nM.

For `Cc1cccc(C[C@@H]2NC(=O)[C@H](CC(=O)O)NC(=O)[C@H](Cc3ccc(C(=O)O)cc3)NC(=O)[C@H](Cc3ccncc3)NC(=O)CSC[C@@H](C(N)=O)NC(=O)[C@H](CCC(=O)O)NC(=O)[C@H](C(C)C)NC(=O)[C@H](CC3CCCCC3)NC(=O)[C@H](CCN)NC(=O)[C@@H](CC(C)C)NC(=O)[C@H](CCCN)NC(=O)[C@H](CCCNC(N)=O)NC(=O)[C@H](Cc3ccc(-c4ccccc4)cc3)NC(=O)[C@H](C(C)C)NC2=O)c1` [Compound 2269] ({CH2CO}-[4Pal][Phe(4-COOH)]D[Phe(3-Me)]V[Bip][Cit][Orn][dL][Dab][Cha]VEC-NH2; thioether N-14), the IC50 came out at 34.1 nM.

`Cc1cccc(C[C@@H]2NC(=O)[C@H](CC(=O)O)NC(=O)[C@H](Cc3ccc(C(=O)O)cc3)NC(=O)[C@H](Cc3ccncc3)NC(=O)CSC[C@@H](C(N)=O)NC(=O)[C@H](CC(=O)O)NC(=O)[C@H](C(C)C)NC(=O)[C@H](CC3CCCCC3)NC(=O)[C@H](CCN)NC(=O)[C@@H](CC(C)C)NC(=O)[C@H](CCCN)NC(=O)[C@H](CCCNC(N)=O)NC(=O)[C@H](Cc3ccc(-c4ccccc4)cc3)NC(=O)[C@H](C(C)C)NC2=O)c1` [Compound 2270] ({CH2CO}-[4Pal][Phe(4-COOH)]D[Phe(3-Me)]V[Bip][Cit][Orn][dL][Dab][Cha]VDC-NH2; thioether N-14): the concentration for half-maximal inhibition (IC50) turned out to be 24.5 nM.

In the case of `Cc1cccc(C[C@@H]2NC(=O)[C@H](CC(=O)O)NC(=O)[C@H](Cc3ccc(C(=O)O)cc3)NC(=O)[C@H](Cc3ccncc3)NC(=O)CSC[C@@H](C(N)=O)NC(=O)[C@H](CC(N)=O)NC(=O)[C@H](C(C)C)NC(=O)[C@H](CC3CCCCC3)NC(=O)[C@H](CCN)NC(=O)[C@@H](CC(C)C)NC(=O)[C@H](CCCN)NC(=O)[C@H](CCCNC(N)=O)NC(=O)[C@H](Cc3ccc(-c4ccccc4)cc3)NC(=O)[C@H](C(C)C)NC2=O)c1` [Compound 2271] ({CH2CO}-[4Pal][Phe(4-COOH)]D[Phe(3-Me)]V[Bip][Cit][Orn][dL][Dab][Cha]VNC-NH2; thioether N-14), the IC50 is 16 nM.

Regarding `Cc1cccc(C[C@@H]2NC(=O)[C@H](CC(=O)O)NC(=O)[C@H](Cc3ccc(C(=O)O)cc3)NC(=O)[C@H](Cc3ccncc3)NC(=O)CSC[C@@H](C(N)=O)NC(=O)[C@H](CCC(N)=O)NC(=O)[C@H](C(C)C)NC(=O)[C@H](CC3CCCCC3)NC(=O)[C@H](CCN)NC(=O)[C@@H](CC(C)C)NC(=O)[C@H](CCCN)NC(=O)[C@H](CCCNC(N)=O)NC(=O)[C@H](Cc3ccc(-c4ccccc4)cc3)NC(=O)[C@H](C(C)C)NC2=O)c1` [Compound 2272] ({CH2CO}-[4Pal][Phe(4-COOH)]D[Phe(3-Me)]V[Bip][Cit][Orn][dL][Dab][Cha]VQC-NH2; thioether N-14), the IC50 came to 32 nM.

Regarding `CCC(C)[C@@H]1NC(=O)[C@H](Cc2ccc(-c3ccccc3)cc2)NC(=O)[C@H](C(C)C)NC(=O)[C@H](Cc2cccc(C)c2)NC(=O)[C@H](CC(=O)O)NC(=O)[C@H](Cc2ccc(C(=O)O)cc2)NC(=O)[C@H](Cc2ccncc2)NC(=O)CSC[C@@H](C(N)=O)NC(=O)[C@H](CCCN)NC(=O)[C@H](C(C)C)NC(=O)[C@H](CC2CCCCC2)NC(=O)[C@H](CCN)NC(=O)[C@@H](CC(C)C)NC(=O)[C@H](CCCN)NC1=O` (stereo partly drawn) [Compound 2273] ({CH2CO}-[4Pal][Phe(4-COOH)]D[Phe(3-Me)]V[Bip][Ile(3ξ)][Orn][dL][Dab][Cha]V[Orn]C-NH2; thioether N-14), the IC50 amounted to 26.6 nM.

Regarding `CCC(C)[C@@H]1NC(=O)[C@H](Cc2ccc(-c3ccccc3)cc2)NC(=O)[C@H](C(C)C)NC(=O)[C@H](Cc2cccc(C)c2)NC(=O)[C@H](CC(=O)O)NC(=O)[C@H](Cc2ccc(C(=O)O)cc2)NC(=O)[C@H](Cc2ccncc2)NC(=O)CSC[C@@H](C(N)=O)NC(=O)[C@H]([C@@H](C)O)NC(=O)[C@H](C(C)(C)C)NC(=O)[C@H](CC2CCCCC2)NC(=O)[C@H](CCN)NC(=O)[C@@H](CC(C)C)NC(=O)[C@H](CCCN)NC1=O` (stereo partly drawn) [Compound 2274] ({CH2CO}-[4Pal][Phe(4-COOH)]D[Phe(3-Me)]V[Bip][Ile(3ξ)][Orn][dL][Dab][Cha][Tle]TC-NH2; thioether N-14), the IC50 was determined as 36.3 nM.
